Read-outs that look alike come from different tables or passages of the source.
Experiments:
Assay type in all cases: in vivo
[1] = system: Galium (catchweed bedstraw, Galium aparine); assay: Test A postemergence; conditions: Galium, post-emergence, 240 h; for pest or weed control at 125 g/ha: 125 g ai/ha; for pest or weed control at 500 g/ha: 500 g ai/ha, visual injury, approx. 10 d
Summary of the method: (§1)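 Visual injury, scored on a 0–100 scale relative to untreated controls, was recorded about 10 d after application. Treatments were a preemergence soil spray over planted seeds or a postemergence spray on plants at the one- to two-leaf stage, 2 to 10 cm tall, all in loam soil–sand blend in the greenhouse.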

[2] = system: blackgrass (Alopecurus myosuroides); assay: Test A postemergence; conditions: Alopecurus myosuroides, post-emergence, 240 h; for pest or weed control at 125 g/ha: 125 g ai/ha; for pest or weed control at 500 g/ha: 500 g ai/ha, visual injury, approx. 10 d
Summary of the method: as §1

[3] = system: ryegrass, Italian (Italian ryegrass, Lolium multiflorum); assay: Test A postemergence; conditions: Lolium multiflorum, post-emergence, 240 h; for pest or weed control at 125 g/ha: 125 g ai/ha; for pest or weed control at 500 g/ha: 500 g ai/ha, visual injury, approx. 10 d
Summary of the method: as §1

Kochia (Kochia scoparia) = assay: Test A postemergence; conditions: Bassia scoparia, post-emergence, 240 h; for pest or weed control at 125 g/ha: 125 g ai/ha; for pest or weed control at 500 g/ha: 500 g ai/ha, visual injury, approx. 10 d
Summary of the method: as §1

[4] = system: wheat (Triticum aestivum); assay: Test A postemergence; conditions: Triticum aestivum, post-emergence, 240 h; for plant injury at 125 g/ha: 125 g ai/ha; for plant injury at 500 g/ha: 500 g ai/ha, visual injury, approx. 10 d
Summary of the method: as §1

[5] = system: barnyardgrass (Echinochloa crus-galli); assay: Test A postemergence; conditions: Echinochloa crus-galli, post-emergence, 240 h, 125 g ai/ha, postemergence; visual injury after approximately 10 d; 0 to 100 scale (0 no effect, 100 complete control); read-out: Plant response rating, Barnyardgrass
Summary of the method: as §1

[6] = system: ragweed (common ragweed, Ambrosia elatior); assay: Test A postemergence; conditions: Ambrosia artemisiifolia, post-emergence, 240 h; for pest or weed control at 125 g/ha: 125 g ai/ha; for pest or weed control at 500 g/ha: 500 g ai/ha, visual injury, approx. 10 d
Summary of the method: as §1

[7] = system: pigweed (Amaranthus retroflexus); assay: Test A postemergence; conditions: Amaranthus retroflexus, post-emergence, 240 h; for pest or weed control at 125 g/ha: 125 g ai/ha; for pest or weed control at 500 g/ha: 500 g ai/ha, visual injury, approx. 10 d
Summary of the method: as §1

[8] = system: giant foxtail (Setaria faberii); assay: Test A postemergence; conditions: Setaria faberi, post-emergence, 240 h; for pest or weed control at 125 g/ha: 125 g ai/ha; for pest or weed control at 500 g/ha: 500 g ai/ha, visual injury, approx. 10 d
Summary of the method: as §1

corn (Zea mays) = assay: Test A postemergence; conditions: Zea mays, post-emergence, 240 h; for plant injury at 125 g/ha / Corn plant response rating (crop injury, 0 = no effect, 100 = complete kill) at 500 g/ha: Postemergence; for plant injury at 125 g/ha: visual rating about 10 d after treatment, read-out: Corn plant response rating (0 to 100 scale); for Corn plant response rating (crop injury, 0 = no effect, 100 = complete kill) at 500 g/ha: 500 g ai/ha, visual injury, approx. 10 d
Summary of the method: as §1

[9] = system: ducksalad (Heteranthera limosa); assay: Test B flooded paddy test; conditions: Heteranthera limosa, Flood, 250 g ai/ha
Summary of the method: (§2)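 Response scored visually against untreated controls, 0 = no effect and 100 = complete control, 13–15 d after treatment in the greenhouse. Compounds added to paddy water held 3 cm above soil surface. Treatment given at 2-leaf stage.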

[10] = system: barnyardgrass (Echinochloa crus-galli); assay: Test B flooded paddy test; conditions: Echinochloa crus-galli, Flood, 250 g ai/ha
Summary of the method: as §2

[11] = system: sedge, umbrella (small-flower umbrella sedge, Cyperus difformis); assay: Test B flooded paddy test; conditions: Cyperus difformis, Flood, 250 g ai/ha
Summary of the method: as §2

rice (Oryra sativa) = assay: Test B flooded paddy test; conditions: Oryza sativa, Flood, 250 g ai/ha
Summary of the method: as §2

[12] = Postemergence, visual rating about 10 d after treatment, read-out: Galium plant response rating (0 to 100 scale)
[13] = Postemergence, 0 to 100 scale (0 no effect, 100 complete control), read-out: Plant response rating, Galium
[14] = Postemergence, visual rating about 10 d after treatment, read-out: Blackgrass plant response rating (0 to 100 scale)
[15] = Postemergence, 0 to 100 scale (0 no effect, 100 complete control), read-out: Plant response rating, Blackgrass
[16] = Postemergence, visual rating about 10 d after treatment, read-out: Ryegrass, Italian plant response rating (0 to 100 scale)
[17] = Postemergence, 0 to 100 scale (0 no effect, 100 complete control), read-out: Plant response rating, Ryegrass, Italian
[18] = Postemergence, visual rating about 10 d after treatment, read-out: Kochia plant response rating (0 to 100 scale)
[19] = Postemergence, 0 to 100 scale (0 no effect, 100 complete control), read-out: Plant response rating, Kochia
[20] = Postemergence, visual rating about 10 d after treatment, read-out: Wheat plant response rating (0 to 100 scale)
[21] = Postemergence, 0 to 100 scale (0 no effect, 100 complete control), read-out: Plant response rating, Wheat
[22] = Postemergence, visual rating about 10 d after treatment, read-out: Ragweed plant response rating (0 to 100 scale)
[23] = Postemergence, 0 to 100 scale (0 no effect, 100 complete control), read-out: Plant response rating, Ragweed
[24] = Postemergence, visual rating about 10 d after treatment, read-out: Pigweed plant response rating (0 to 100 scale)
[25] = Postemergence, 0 to 100 scale (0 no effect, 100 complete control), read-out: Plant response rating, Pigweed
[26] = Postemergence, visual rating about 10 d after treatment, read-out: Foxtail, Giant plant response rating (0 to 100 scale)
[27] = Postemergence, 0 to 100 scale (0 no effect, 100 complete control), read-out: Plant response rating, Foxtail, Giant
[28] = 0 to 100 scale (0 no effect, 100 complete control)

Q: What does the source list for `CN1C[C@H](c2cccc([N+](=O)[O-])c2)[C@@H](C(=O)Nc2cccc(F)c2F)C1=O` (racemic) [Compound 776]?
A: pest or weed control at 125 g/ha ([1]; postemergence, visual injury after approximately 10 d, 0 to 100 scale (0 no effect, 100 complete control), read-out: Plant response rating, Galium): 20%; pest or weed control at 125 g/ha ([2]; postemergence, visual injury after approximately 10 d, 0 to 100 scale (0 no effect, 100 complete control), read-out: Plant response rating, Blackgrass): 30%; pest or weed control at 125 g/ha ([3]; postemergence, visual injury after approximately 10 d, 0 to 100 scale (0 no effect, 100 complete control), read-out: Plant response rating, Ryegrass, Italian): 20%; pest or weed control at 125 g/ha (Kochia (Kochia scoparia); postemergence, visual injury after approximately 10 d, 0 to 100 scale (0 no effect, 100 complete control), read-out: Plant response rating, Kochia): 20%; plant injury at 125 g/ha ([4]; postemergence, visual injury after approximately 10 d, 0 to 100 scale (0 no effect, 100 complete control), read-out: Plant response rating, Wheat): 30%; pest or weed control at 125 g/ha [5]: 80%; pest or weed control at 125 g/ha ([6]; postemergence, visual injury after approximately 10 d, 0 to 100 scale (0 no effect, 100 complete control), read-out: Plant response rating, Ragweed): 0%; pest or weed control at 125 g/ha ([7]; postemergence, visual injury after approximately 10 d, 0 to 100 scale (0 no effect, 100 complete control), read-out: Plant response rating, Pigweed): 0%; pest or weed control at 125 g/ha ([8]; postemergence, visual injury after approximately 10 d, 0 to 100 scale (0 no effect, 100 complete control), read-out: Plant response rating, Foxtail, Giant): 80%; Corn plant response rating (crop injury, 0 = no effect, 100 = complete kill) at 125 g/ha (corn (Zea mays); 125 g ai/ha, postemergence, visual injury after approximately 10 d, 0 to 100 scale (0 no effect, 100 complete control)): 30%; pest or weed control at 250 g/ha ([9]; scale of 0 to 100 where 0 is no effect and 100 is complete control, read-out: Ducksalad plant response rating): 80%; pest or weed control at 250 g/ha ([10]; scale of 0 to 100 where 0 is no effect and 100 is complete control, read-out: Barnyardgrass plant response rating): 80%; pest or weed control at 250 g/ha ([11]; scale of 0 to 100 where 0 is no effect and 100 is complete control, read-out: Sedge, Umbrella plant response rating): 0%; pest or weed control at 250 g/ha (rice (Oryra sativa); scale of 0 to 100 where 0 is no effect and 100 is complete control, read-out: Rice plant response rating): 0%

Q: What does the source list for `Cc1cc([C@H]2CN(C)C(=O)[C@@H]2C(=O)Nc2cccc(F)c2C)ccc1F` [Compound 1311]?
A: pest or weed control at 125 g/ha [1, 12]: 50%; pest or weed control at 500 g/ha [1, 13]: 60%; pest or weed control at 125 g/ha [2, 14]: 60%; pest or weed control at 500 g/ha [2, 15]: 60%; pest or weed control at 125 g/ha [3, 16]: 40%; pest or weed control at 500 g/ha [3, 17]: 80%; pest or weed control at 125 g/ha (Kochia (Kochia scoparia); [18]): 30%; pest or weed control at 500 g/ha (Kochia (Kochia scoparia); [19]): 50%; plant injury at 125 g/ha [4, 20]: 60%; plant injury at 500 g/ha [4, 21]: 80%; pest or weed control at 125 g/ha [6, 22]: 0%; pest or weed control at 500 g/ha [6, 23]: 30%; pest or weed control at 125 g/ha [7, 24]: 0%; pest or weed control at 500 g/ha [7, 25]: 20%; pest or weed control at 125 g/ha [8, 26]: 90%; pest or weed control at 500 g/ha [8, 27]: 90%; plant injury at 125 g/ha (corn (Zea mays); 125 g ai/ha): 70%; Corn plant response rating (crop injury, 0 = no effect, 100 = complete kill) at 500 g/ha (corn (Zea mays); [28]): 80%; pest or weed control at 250 g/ha ([9]; 0 to 100 scale where 0 is no effect and 100 is complete control, read-out: Ducksalad plant response rating): 100%; pest or weed control at 250 g/ha ([10]; 0 to 100 scale where 0 is no effect and 100 is complete control, read-out: Barnyardgrass plant response rating): 80%; pest or weed control at 250 g/ha ([11]; 0 to 100 scale where 0 is no effect and 100 is complete control, read-out: Sedge, Umbrella plant response rating): 0%; pest or weed control at 250 g/ha (rice (Oryra sativa); 0 to 100 scale where 0 is no effect and 100 is complete control, read-out: Rice plant response rating): 0%

Q: `COc1cc(OC)cc([C@H]2CN(C)C(=O)[C@@H]2C(=O)Nc2cccc(F)c2F)c1` [Compound 1370] was tested. Which pest or weed control at 125 g/ha [1, 12] did it give?
A: 40%

Q: What about the pest or weed control at 500 g/ha [1, 13] of the same compound?
A: 50%

Q: And the pest or weed control at 125 g/ha [2, 14]?
A: 50%

Q: What about the pest or weed control at 500 g/ha [2, 15] of the same compound?
A: 80%

Q: What about the pest or weed control at 125 g/ha [3, 16] of the same compound?
A: 40%

Q: What about the pest or weed control at 500 g/ha [3, 17] of the same compound?
A: 70%

Q: And the pest or weed control at 125 g/ha (Kochia (Kochia scoparia); [18])?
A: 50%

Q: And the pest or weed control at 500 g/ha (Kochia (Kochia scoparia); [19])?
A: 50%

Q: What about the plant injury at 125 g/ha [4, 20] of the same compound?
A: 40%

Q: And the plant injury at 500 g/ha [4, 21]?
A: 70%

Q: What about the pest or weed control at 125 g/ha [6, 22] of the same compound?
A: 0%

Q: What about the pest or weed control at 500 g/ha [6, 23] of the same compound?
A: 30%

Q: What about the pest or weed control at 125 g/ha [7, 24] of the same compound?
A: 0%

Q: What about the pest or weed control at 500 g/ha [7, 25] of the same compound?
A: 30%

Q: What about the pest or weed control at 125 g/ha [8, 26] of the same compound?
A: 90%

Q: And the pest or weed control at 500 g/ha [8, 27]?
A: 90%

Q: And the plant injury at 125 g/ha (corn (Zea mays); 125 g ai/ha)?
A: 30%

Q: And the Corn plant response rating (crop injury, 0 = no effect, 100 = complete kill) at 500 g/ha (corn (Zea mays); [28])?
A: 80%

Q: And the pest or weed control at 250 g/ha ([9]; 360 h, visually evaluated after 13 to 15 d, read-out: Plant response rating, Ducksalad (0 to 100 scale where 0 is no effect and 100 is complete control))?
A: 70%

Q: What about the pest or weed control at 250 g/ha ([10]; 360 h, visually evaluated after 13 to 15 d, read-out: Plant response rating, Barnyardgrass (0 to 100 scale where 0 is no effect and 100 is complete control)) of the same compound?
A: 60%

Q: What about the pest or weed control at 250 g/ha ([11]; 360 h, visually evaluated after 13 to 15 d, read-out: Plant response rating, Sedge, Umbrella (0 to 100 scale where 0 is no effect and 100 is complete control)) of the same compound?
A: 0%

Q: And the pest or weed control at 250 g/ha (rice (Oryra sativa); 360 h, visually evaluated after 13 to 15 d, read-out: Plant response rating, Rice (0 to 100 scale where 0 is no effect and 100 is complete control))?
A: 20%
